# In US5508387A, “Selectin binding glycopeptides” (Glycomed Incorporated, priority 1993, dated 1996):
# Tests used:
# [1] = tested on: L-selectin; assay: ELISA assay: inhibition of L-selectin-IgG chimera binding to 2,3 sLex glycolipid; details: FIG. 4; tested at several concentrations; results expressed as percent of control binding
# Experimental: (§1) An ELISA assay (Foxall et al, The Journal of Cell Biology (1992) 117:895) is preferably used which consists of the following three steps:
# (§2) 1. 2,3 sLex glycolipid is transferred into microtitre wells as solutions and then evaporated off. Excess, which remained unattached, is washed off with water. The wells are then blocked with a blocking agent, preferably BSA.
# (§3) 2. Preparation of "multivalent" receptor of the Selectin-IgG chimera is carried out by combining the respective chimera with biotin labelled goat F(ab')2 anti-human IgG (Fc specific) and streptavidin-alkaline phosphatase diluted appropriately and incubated. This allows the soluble multivalent receptor complex to form.
# (§4) 3. Potential inhibitors such as glyco-amino acids or glycopeptides of structural formula I are allowed to react with the soluble receptor. This solution is then placed in the microtitre wells that are prepared in step 1. The plate is incubated to allow the soluble receptor to bind to its natural ligand. In the presence of a strong inhibitor only a few of the receptors should be free to bind to the microtitre plate coated with the natural ligand.
# (§5) The positive control is the signal produced by the soluble receptor when it is allowed to react with the natural ligand in the microtitre wells in the absence of any inhibitor. This is considered 100% binding. The signal produced by the receptor that is previously treated with an inhibitor (recorded as O.D.), is divided by the signal produced by the positive control and multiplied by 100 to calculate the % receptor bound to the well in the presence of the inhibitor. The reciprocal of this is the % inhibition.
# (§6) The glyco-amino acids or glycopeptides of structural formula I can be tested for their ability to bind to a selectin receptor and/or block the binding site of the receptor and thereby prevent a natural ligand from binding to the selectin receptor (Foxall et al, The Journal of Cell Biology (1992) 117:895). A generalized procedure for testing the ligands is given below.
# (§7) An ELISA assay is preferably used which consisted of the following three steps:
# 1. 2,3 sLex glycolipid (25 picomol/well) was transferred into microtitre wells as solutions and evaporated off. Excess, which remained unattached, was washed off with water. The wells were blocked with 5% BSA at room temperature for an hour and washed with PBS containing 1 mM calcium.
# 2. Preparation of "multivalent" receptor of the Selectin-IgG chimera was carried out by combining the respective chimera (1 μg/mL) with biotin labelled goat F(ab')2 anti-human IgG (Fc specific) and streptavidin-alkaline phosphatase diluted 1:1000 in 1% BSA-PBS (1 mM calcium) and incubating at 37° C. for 15 min. This allowed the soluble multivalent receptor complex to form.
# 3. Potential inhibitors such as glyco-amino acids or glycopeptides of structural formula I were allowed to react with the soluble receptor at 37° C. for 45 min. This test assumes that optimal binding, between the soluble phase receptor complex and the inhibitor (non-natural ligand), would occur within this time frame. This solution was placed in the microtitre wells that were prepared in step 1. The plate was incubated at 37° C. for 45 minutes to allow the soluble receptor to bind to its natural ligand. In the presence of a strong inhibitor only a few receptors would be free to bind to the microtitre plate coated with the natural ligand.
# The positive control was the signal produced by the soluble receptor when it was allowed to react with the natural ligand in the microtitre wells in the absence of any inhibitor. This was considered 100% binding. The signal produced by the receptor that was previously treated with an inhibitor (recorded as O.D.), was divided by the signal produced by the positive control and multiplied by 100 to calculate the % receptor bound to the well in the presence of the inhibitor. The reciprocal of this is the % inhibition.
# [2] = tested on: P-selectin; assay: ELISA assay: inhibition of P-selectin-IgG chimera binding to 2,3 sLex glycolipid; details: FIG. 5; tested at several concentrations; results expressed as percent of control binding
# Experimental: as §1, §2, §3, §4, §5, §6, §7
# 1. 2,3 sLex glycolipid (25 picomol/well) was transferred into microtitre wells as solutions and evaporated off. Excess, which remained unattached, was washed off with water. […]
# The positive control was the signal produced by the soluble receptor when it was allowed to react with the natural ligand in the microtitre wells in the absence of any inhibitor. […] The signal produced by the receptor that was previously treated with an inhibitor (recorded as O.D.), was divided by the signal produced by the positive control and multiplied by 100 to calculate the % receptor bound to the well in the presence of the inhibitor. […]
# [3] = tested on: P-selectin; assay: P-selectin/HL-60 assay; format: cell-based; details: FIG. 6; HL-60 cells; tested at several concentrations
# Excerpt: The glyco-amino acids or glycopeptides of structural formula I can be tested for their ability to inhibit P-selectin binding to its native ligand. A generalized procedure for testing the ligands is given below. A P-selectin/HL-60 assay is preferably used which consists of the following steps:
# 1. HL-60 cells are harvested and pelleted by centrifugation. The cells are washed, counted and the volume adjusted appropriately.
# 2. PVC microtiter plate is blocked with a blocking agent, and washed with TBS-BSA.
# 3. P-selectin is diluted appropriately in BSA-TBS Ca containing goat F(ab')2 anti-human IgG (Fc spec) and streptavidin-alkaline phosphatase. Positive controls have DMF added to equal the highest concentration of DMF in the sample compounds.
# 4. Ligands are incubated at room temperature with brisk rotation. […]
# Para-nitrophenylphosphonate is added to the plate. […] Aliqouts from each well is transferred to a polystyrene microtiter plate and O.D. read at 405 nm. […] The signal produced by the receptor that is previously treated with an inhibitor (recorded as O.D.), is divided by the signal produced by the positive control and multiplied by 100 to calculate the % receptor bound to the well in the presence of the inhibitor. […]
# 1. […] The cells were washed three times with TBS without Ca, counted and the volume adjusted to 1.9×10^6 /ml in 1% BSA-TBS Ca just prior to use. […]
# [4] = tested on: lymphocyte binding to high endothelial venules (HEV), L-selectin mediated; assay: Stamper-Woodruff assay (lymphocyte adhesion to HEV of lymph node frozen sections); format: cell-based, female Swiss Webster mice; female Sprague-Dawley rats; details: FIG. 7, percent of relative binding
# Excerpt: (§8) Lymphocytes are known to circulate from blood to lymphoid tissues via high endothelial venules (HEV) on lymph nodes. L-selectin is expressed on the surface of lymphocytes and is believed to mediate lymphocyte adhesion by binding to the natural ligand on the HEV. The glyco-amino acids or glycopeptides of structural formula I can be tested for their ability to bind to a selectin receptor and/or block the binding site of the receptor and thereby prevent a natural ligand from binding to the selectin receptor. See, for example, Stoolman et al, The Journal of Cell Biology (1983) 96:722. The Stamper-Woodruff assay is well known in the an, and generally consists of the following three steps:
# 1. Preparation of the lymphocytes:
# (a) The lymphocytes are obtained from the mesenteric nodes of female Swiss Webster mice, by gently teasing tissues with phosphate buffered saline (PBS). The cells are obtained by gently squeezing the cells from the tissues. The cells are dispersed and the cell clumps are removed. The single cell suspension is suspended, washed, and kept on ice until use (less than two hours). Cells are counted and prepared at an appropriate concentration.
# (b) The superficial and deep cervical lymph nodes of female Sprague-Dawley rats are dissected and prepared in the same way as the mice.
# 2. Preparation of frozen sections:
# Superficial or deep cervical lymph nodes are dissected from the animals, snap frozen, and immediately placed in a cryostat for sectioning. 10-μm sections are prepared and transferred onto glass slides, and air dried.
# 3. Potential inhibitors are added to lymphocyte suspensions 10-30 minutes before the start of the binding assay, and unless otherwise stated, are present throughout the subsequent binding incubation.
# The frozen sections are used in the order in which they are cut. Aliquots of untreated lymphocytes (positive control), suspensions containing fucoidin (negative control) and suspensions containing potential inhibitors are layered on the sections in an arbitrary sequence such that the control and each test substance are represented once in a series.
# The binding of the lymphocytes to the HEV is easily distinguishable from binding elsewhere by virtue of the characteristic picture of tightly packed, darkly stained lymphocytes overlaying the histologically distinctive HEV. The number of adherent lymphocytes on each HEV are counted and the average number of adherent cells per HEV (cells bound per HEV) is calculated. The results are expressed as a percent of relative binding, wherein the positive control is considered to be 100% binding.
# as §8, with “were” for “can be”, “art,” for “an,”
# (a) The lymphocytes were obtained from the mesenteric nodes of female Swiss Webster mice (23-27 g), by gently teasing tissues by phosphate buffered saline (PBS). […] Cells were counted and prepared at 3-4×10^7 cells/ml. […]
SMILES,inhibition of the binding of sLe^x to L-selectin [1],inhibition of the binding of sLe^x to P-selectin [2],inhibition of the binding of sLe^x to P-selectin in the HL-60 assay [3],inhibitory effects in the Stamper-Woodruff assay (cell adhesion) [4]
"C[C@@H]1O[C@@H](CC(=O)N2CCC[C@H]2C(=O)N[C@@H](Cc2ccccc2)C(=O)O)[C@@H](O)[C@H](O)[C@@H]1O [#1, N-[(1-deoxy-α-L-fucopyranosyl)acetyl]-L-proline-L-phenylalanine]",inhibit the binding of sLe^x to L-selectin,inhibit the binding of sLe^x to P-selectin,inhibit the binding of sLe^x to P-selectin,inhibitory effects
"C[C@H](NC(=O)C[C@@H]1O[C@@H](C)[C@@H](O)[C@@H](O)[C@@H]1O)C(=O)N1CCC[C@H]1C(=O)N[C@@H](Cc1ccccc1)C(=O)O [#2, N-[(1-deoxy-α-L-fucopyranosyl)acetyl]-L-alanine-L-proline-L-phenylalanine]",inhibit the binding of sLe^x to L-selectin,–,inhibit the binding of sLe^x to P-selectin,inhibitory effects
"C[C@@H]1O[C@@H](CC(=O)N[C@@H](CCCCNC(=O)OC(C)(C)C)C(=O)O)[C@@H](O)[C@H](O)[C@@H]1O [#3, N-ω-t-butoxylcarbonyl-N-α-[(1-deoxy-α-L-fucopyranosyl)acetyl]-L-lysine]",inhibit the binding of sLe^x to L-selectin,inhibit the binding of sLe^x to P-selectin,–,inhibitory effects
"C[C@@H]1O[C@@H](CCCC(=O)N2CCC[C@H]2C(=O)N[C@@H](Cc2ccccc2)C(=O)O)[C@@H](O)[C@H](O)[C@@H]1O [#4, N-[4-(1-deoxy-α-L-fucopyranosyl)n-butanoyl]-L-proline-L-phenylalanine]",inhibit the binding of sLe^x to L-selectin,inhibit the binding of sLe^x to P-selectin,–,inhibitory effects
"C[C@@H]1O[C@@H](CC(=O)N2CCC[C@H]2C(=O)N[C@H](C(=O)O)c2ccccc2)[C@@H](O)[C@H](O)[C@@H]1O [#5, N-[(1-deoxy-α-L-fucopyranosyl)acetyl]-L-proline-L-phenylglycine]",inhibit the binding of sLe^x to L-selectin,inhibit the binding of sLe^x to P-selectin,–,inhibitory effects
"CC1OC(CCCC(=O)NC(Cc2ccccc2)C(=O)O)C(O)C(O)C1O [#6, N-[4-(1-deoxy-α-L-fucopyranosyl)n-butanoyl]-L-phenylalanine]",inhibit the binding of sLe^x to L-selectin,–,–,–
